Measurements as given in patent US20150274634A1, “COMPOUNDS FOR THE TREATMENT OF OBESITY AND METHODS OF USE THEREOF” (The Children's Medical Center Corporation, priority 2014, published 2015).

Key:
[1] = weight loss products; cited from earlier work
[2] = system: aspartate transaminase (AST); assay: Serum AST by ELISA; format: in vivo; conditions: HFD-fed obese mice; 100 μg/kg i.p., three weeks
Method: (§1) To investigate the effect of celastrol administration on liver function, serum levels of alanine transaminase (ALT) and aspartate transaminase (AST) were measured in mice following three weeks of celastrol treatment (100 μg/kg, i.p.). ALT and AST were measured using an enzyme-linked immunosorbent assay (ELISA) kit (from Bio Scientific).

HFD-fed obese mice [3] = assay: Liver and kidney histology (H&E); format: in vivo; conditions: 100 μg/kg i.p., three weeks
[4] = system: alanine transaminase (ALT); assay: Serum ALT by ELISA; format: in vivo; conditions: HFD-fed obese mice; 100 μg/kg i.p., three weeks
Method: as §1

mice = assay: Locomotor activity (Comprehensive Lab Animal Monitoring System); format: in vivo
Method: FIGS. 16A and 16B are graphs showing x (FIG. 16A) and y (FIG. 16B) direction ambulatory motion for control and celastrol in dark and light cycles. Toxicity was evaluated using Columbus Instruments Comprehensive Lab Animal Monitoring System we have measure the locomotor activity of the animals.
Locomotor activity was also normal in celastrol-treated mice. This is consistent with celastrol not having a toxic effect causing anorexia and weight loss, since the latter would be associated with decreased locomotor activity.
FIGS. 16A and 16B are graphs showing x (FIG. 16A) and y (FIG. 16B) direction ambulatory motion for control and celastrol in dark and light 2 cycles. Toxicity was evaluated using Columbus Instruments Comprehensive Lab Animal Monitoring System we have measure the locomotor activity of the animals.

lean mice = assay: Leptin injection upon acute celastrol treatment, lean mice; format: in vivo; conditions: 6-hour time point, leptin 10 mg/kg i.p., DMSO or celastrol 100 μg/kg i.p. pretreatment
Method: (§2) It was therefore hypothesized that celastrol exerts anti-obesity effects through increasing leptin sensitivity in the brains of the HFD-fed obese mice. To test this hypothesis, leptin was administered to celastrol- or vehicle-treated HFD-fed obese animals. To avoid any possible leptin sensitizing effect of weight loss or decreased food intake created by celastrol administration, leptin injections were carried out upon acute celastrol treatment as described below.
(§3) Lean and HFD-fed obese mice were divided into four groups: 1) DMSO+saline, 2) DMSO+leptin, 3) celastrol+saline, and 4) celastrol+leptin (n=3 per group). Mice were injected (i.p.) with 100 μg/kg celastrol or vehicle (DMSO) one hour before dark cycle (day zero). 24 hours later, mice were injected for a second time with celastrol or DMSO (day 1), and all animals were then taken to 24 hour-fasting. On day two, at 21 hours of fasting, mice received a final injection of DMSO or celastrol. 30 minutes prior to dark cycle, at 23.5 hour of fasting, mice received a single i.p. injection of leptin (10 mg/kg, dissolved in saline), or saline. […] 1, 3, 6, 15, and 24-hour food intake and 24-hour body weight changes were recorded (FIG. 7A). […] This is clearly evident when food intake of the celastrol-treated mice is calculated in percent values (FIG. 7B). […]

HFD-fed obese mice [5] = assay: Leptin injection upon acute celastrol treatment, HFD-fed obese mice; format: in vivo; conditions: leptin 10 mg/kg i.p.
Method: as §2, §3

[Cr] [Chromium]
Safety [1]: Likely safe

CC1=C(O)C(=O)C=C2C1=CC=C1[C@@]2(C)CC[C@@]2(C)[C@@H]3C[C@](C)(C(=O)O)CC[C@]3(C)CC[C@]12C [celastrol]
serum AST level [2]: decreases | kidney morphology (HFD-fed obese mice [3]): no detectable change | serum ALT level [4]: decreases | locomotor activity (mice; celastrol-treated mice): normal | x and y direction ambulatory motion counts (mice; dark and light cycles, celastrol versus control): not significantly different

Conjugated linoleic acid [Conjugated linoleic acid (CLA)]
Effectiveness [1]: Possibly effective | Safety [1]: Possibly safe

leptin: peptide hormone, afferent signal in a negative feedback loop regulating food intake and body weight
decrease in food intake upon leptin injection (lean mice): approximately 40% | decrease in food intake upon leptin injection (HFD-fed obese mice [5]; 6-hour time point, DMSO or celastrol 100 μg/kg i.p. pretreatment): approximately 40% | 24-hour body weight change (HFD-fed obese mice [5]; 24 hour ad libitum feeding after 24-hour fasting, celastrol 100 μg/kg i.p.): resistant
